From patent publication US20250296960A1, “PEPTIDE COMPOSITIONS AND METHODS OF USE THEREOF” (priority 2022, published 2025)
Square brackets hold non-standard residues; d marks the D form. Peptide text beside a SMILES is read from it. * marks the point of attachment. X1 = O=C(O)CCCCCCCCCCCCCCCCC(=O)N[C@@H](CCC(=O)NCCOCCOCC(=O)NCCOCCOCC(=O)NCCN1C(=O)CC(*)C1=O)C(=O)O; Aib = CC(C)(N)C(=O)O

Assays:
human GCGR = target: T1, human GCGR (Homo sapiens, UniProt P47871); experiment: cAMP assay (HitHunter cAMP) in GCGR-expressing CHO-K1 cells (GCGR+ cells); format: cell-based; conditions: for Activity relative to STD peptide (%), GCGR: Table 18; for Activity relative to GLP-1 (%), GCGR: Table 19; for Relative % to native ligand, GCGR: Table 24, ratio of EC50 of native ligand over peptide; for Ratio vs. GLP-1R, GCGR: Table 25; for Relative % to non-lipidated peptide, GCGR: Table 26
T1 construct: host or cells: CHO-K1
T1 sequence (P47871 26-477): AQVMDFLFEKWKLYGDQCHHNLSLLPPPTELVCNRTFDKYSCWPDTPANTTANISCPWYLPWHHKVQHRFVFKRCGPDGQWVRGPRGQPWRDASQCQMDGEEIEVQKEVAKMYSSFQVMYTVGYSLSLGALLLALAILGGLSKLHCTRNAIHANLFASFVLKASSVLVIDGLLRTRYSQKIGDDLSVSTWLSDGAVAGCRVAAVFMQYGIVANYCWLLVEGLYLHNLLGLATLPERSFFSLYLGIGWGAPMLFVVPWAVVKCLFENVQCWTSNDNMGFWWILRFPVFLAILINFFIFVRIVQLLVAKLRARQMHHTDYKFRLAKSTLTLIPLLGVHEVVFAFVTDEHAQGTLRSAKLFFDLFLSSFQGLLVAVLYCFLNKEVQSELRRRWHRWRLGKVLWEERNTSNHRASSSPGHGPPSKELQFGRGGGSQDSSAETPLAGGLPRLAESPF
Description: (§1) The cells were seeded in a 96-well plate at 7×10^3 cells/well using cell plate reagent and incubated the cells overnight at 37° C. and 5% CO2. To perform the cAMP detection assay, cell plating reagent were replaced with the cAMP Assay buffer. Each of the wells was then treated with the diluted peptide and incubated for 30 minutes under conditions of a temperature of 37° C. in a CO2 incubator.
(§2) After the incubation, cAMP Antibody reagent and Working cAMP detection solution to all wells. Incubate the plate for 1 hour at Room temperature in the dark. Then, cAMP Solution A was added and incubated for 3 hours at room temperature in the dark. Subsequently, the luminescence was measured using the microplate reader device.

human GIPR = target: T2, human GIPR (Homo sapiens, UniProt P48546); experiment: cAMP assay (HitHunter cAMP) in GIPR-expressing CHO-K1 cells (GIPR+ cells); format: cell-based; conditions: for Activity relative to STD peptide (%), GIPR: Table 18; for Activity relative to GLP-1 (%), GIPR: Table 19; for Relative % to native ligand, GIPR: Table 24, ratio of EC50 of native ligand over peptide; for Ratio vs. GLP-1R, GIPR: Table 25; for Relative % to non-lipidated peptide, GIPR: Table 26
T2 construct: host or cells: CHO-K1
T2 sequence (P48546 22-466): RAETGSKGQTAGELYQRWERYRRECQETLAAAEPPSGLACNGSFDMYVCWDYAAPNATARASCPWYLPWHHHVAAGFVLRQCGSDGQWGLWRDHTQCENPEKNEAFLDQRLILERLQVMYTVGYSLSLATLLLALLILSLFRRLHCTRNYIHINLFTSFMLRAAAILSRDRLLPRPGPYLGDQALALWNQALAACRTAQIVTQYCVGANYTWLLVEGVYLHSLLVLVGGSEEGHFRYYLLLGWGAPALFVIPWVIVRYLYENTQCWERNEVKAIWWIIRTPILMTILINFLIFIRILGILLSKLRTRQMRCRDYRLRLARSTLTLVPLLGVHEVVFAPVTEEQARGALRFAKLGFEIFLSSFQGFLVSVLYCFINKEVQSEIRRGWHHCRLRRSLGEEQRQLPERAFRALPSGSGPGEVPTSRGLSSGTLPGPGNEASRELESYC
Description: as §1, §2

[1] = Body weight loss in normal C57BL/6 mice, subcutaneous dosing; format: in vivo; conditions: normal mice, after 48 or 72 hours
Description: To confirm the therapeutic effect of the peptide in vivo, polypeptides were administered to mice to measure changes in body weight. […] The peptides were delivered at 0.02% polysorbate 80 (PS80) in PBS and dosing volume was 10 mL/kg. Body weight was monitored 6 h, QD.
To confirm the therapeutic effect of the peptide in obesity, diabetes, or NASH, polypeptides were administered to mice to measure changes in food intake, blood glucose and body weight. […] In addition, a NASH animal model was prepared by feeding a high fat, high fructose, high cholesterol diet to normal C57BL/6 mice (approximately 6 weeks old) for approximately 21 weeks, and increasing the body weights of the mice to approximately 50 g on average. Thereafter, polypeptides were administered by subcutaneous injection at dose of 20 nmol/kg once every other day for 2 weeks. Body weight and food intake were measured once every other day given points of time. After 2 weeks of treatment period, mice were sacrificed, then liver weight, hepatic triglyceride, and NASH related biomarkers were measured.
DD01 administered at 40 nmol/kg, s.c. Q2D as positive control was delivered at 0.02% PS80 in PBS and dosing volume was 10 mL/kg. Body weight was monitored QD for 4 days.
The peptides were delivered at 0.02% PS80 in PBS and dosing volume was 10 mL/kg. Food intake, blood glucose, and body weight changes were monitored QD.

human GLP-1R = target: T3, human GLP-1R (Homo sapiens, UniProt P43220); experiment: cAMP assay (HitHunter cAMP) in GLP-1R-expressing CHO-K1 cells (GLP-1R+ cells); format: cell-based; conditions: for Activity relative to STD peptide (%), GLP-1R: Table 18; for Activity relative to GLP-1 (%), GLP-1R: Table 19; for Relative % to native ligand, GLP-1R: Table 24, ratio of EC50 of native ligand over peptide; for Ratio vs. GLP-1R, GLP-1R: Table 25; for Relative % to non-lipidated peptide, GLP-1R: Table 26
T3 construct: host or cells: CHO-K1
T3 sequence (P43220 24-463): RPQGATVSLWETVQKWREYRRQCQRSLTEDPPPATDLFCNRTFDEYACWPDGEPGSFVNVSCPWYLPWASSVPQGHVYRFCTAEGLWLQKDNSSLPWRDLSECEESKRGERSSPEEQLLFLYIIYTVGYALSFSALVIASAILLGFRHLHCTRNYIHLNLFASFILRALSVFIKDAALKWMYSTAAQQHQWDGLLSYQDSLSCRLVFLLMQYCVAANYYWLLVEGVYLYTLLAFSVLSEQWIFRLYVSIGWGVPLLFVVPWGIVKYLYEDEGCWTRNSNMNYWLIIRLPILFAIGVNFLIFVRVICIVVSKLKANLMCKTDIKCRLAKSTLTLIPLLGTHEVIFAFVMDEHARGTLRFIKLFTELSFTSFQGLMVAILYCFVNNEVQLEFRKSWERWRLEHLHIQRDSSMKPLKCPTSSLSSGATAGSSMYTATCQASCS
Description: as §1, §2

[2] = normalised to activity at GLP-1R
[3] = Table 13, EC50 of STD peptide over EC50 of peptide
[4] = Table 14, normalised to activity at GLP-1R

Structure (SMILES)	Activity relative to STD peptide (%), GCGR (human GCGR) [%]	Activity relative to GLP-1 (%), GCGR (human GCGR; [2]) [%]	Relative % to native ligand, GCGR (human GCGR) [%]	Ratio vs. GLP-1R, GCGR (human GCGR)	Relative % to non-lipidated peptide, GCGR (human GCGR) [%]	Activity relative to STD peptide (%), GIPR (human GIPR) [%]	Activity relative to GLP-1 (%), GIPR (human GIPR; [2]) [%]	Relative % to native ligand, GIPR (human GIPR) [%]	Ratio vs. GLP-1R, GIPR (human GIPR)	Relative % to non-lipidated peptide, GIPR (human GIPR) [%]	Weight loss (%) ([1]; 20 nmol/kg QD)	Activity relative to STD peptide (%), GLP-1R (human GLP-1R) [%]	Activity relative to GLP-1 (%), GLP-1R (human GLP-1R; [2]) [%]	Relative % to native ligand, GLP-1R (human GLP-1R) [%]	Ratio vs. GLP-1R, GLP-1R (human GLP-1R)	Relative % to non-lipidated peptide, GLP-1R (human GLP-1R) [%]	other results
CC[C@H](C)[C@H](NC(=O)[C@H](CC(C)C)NC(=O)[C@H](Cc1c[nH]c2ccccc12)NC(=O)[C@H](CCC(N)=O)NC(=O)[C@@H](NC(=O)[C@H](Cc1ccccc1)NC(=O)[C@H](CC(=O)O)NC(=O)[C@H](CCCNC(=N)N)NC(=O)[C@H](CCC(N)=O)NC(=O)[C@H](CCSC)NC(=O)[C@H](CCSC)NC(=O)[C@H](Cc1ccc(O)cc1)NC(=O)[C@H](CC(=O)O)NC(=O)[C@H](CC(C)C)NC(=O)[C@H](Cc1ccc(O)cc1)NC(=O)[C@H](CCCCN)NC(=O)[C@H](CO)NC(=O)[C@H](Cc1ccc(O)cc1)NC(=O)[C@H](CC(=O)O)NC(=O)[C@H](CO)NC(=O)[C@@H](NC(=O)[C@H](Cc1ccccc1)NC(=O)[C@@H](NC(=O)CNC(=O)[C@H](CCC(N)=O)NC(=O)C(C)(C)NC(=O)[C@@H](N)Cc1ccc(O)cc1)[C@@H](C)O)[C@@H](C)O)C(C)C)C(=O)N[C@@H](CCC(=O)O)C(=O)NCC(=O)NCC(=O)N1CCC[C@H]1C(=O)N[C@@H](CO)C(=O)N[C@@H](CO)C(=O)NCC(=O)N[C@@H](C)C(=O)N1CCC[C@H]1C(=O)N1CCC[C@H]1C(=O)N1CCC[C@H]1C(=O)N[C@@H](CO)C(=O)N[C@@H](CSC1CC(=O)N(CCNC(=O)COCCOCCNC(=O)COCCOCCNC(=O)CC[C@H](NC(=O)CCCCCCCCCCCCCCCCC(=O)O)C(=O)O)C1=O)C(N)=O (stereo partly shown) [5-2A] (H-Y[Aib]QGTFTSDYSKYLDYMMQRDFVQWLIEGGPSSGAPPPSC(X1)-NH2; N-terminus assumed)	1	0	1	0	1	3	2	3	2	0.4	10.4 ± 1.2	145	100	145	100	29	
CC[C@H](C)[C@H](NC(=O)[C@H](CC(C)C)NC(=O)[C@H](Cc1c[nH]c2ccccc12)NC(=O)[C@H](CCC(N)=O)NC(=O)[C@@H](NC(=O)[C@H](Cc1ccccc1)NC(=O)[C@H](CC(=O)O)NC(=O)[C@H](CCCNC(=N)N)NC(=O)[C@H](C)NC(=O)[C@H](CCSC)NC(=O)[C@H](CCSC)NC(=O)[C@H](Cc1ccc(O)cc1)NC(=O)[C@H](CC(=O)O)NC(=O)[C@H](CC(C)C)NC(=O)[C@H](Cc1ccc(O)cc1)NC(=O)[C@H](CCCCNC(=O)COCCOCCNC(=O)COCCOCCNC(=O)CC[C@H](NC(=O)CCCCCCCCCCCCCCCCC(=O)O)C(=O)O)NC(=O)[C@H](CO)NC(=O)[C@H](Cc1ccc(O)cc1)NC(=O)[C@H](CC(=O)O)NC(=O)[C@H](CO)NC(=O)[C@@H](NC(=O)[C@H](Cc1ccccc1)NC(=O)[C@@H](NC(=O)CNC(=O)[C@H](CCC(N)=O)NC(=O)C(C)(C)NC(=O)[C@@H](N)Cc1c[nH]cn1)[C@@H](C)O)[C@@H](C)O)C(C)C)C(=O)N[C@@H](CCC(=O)O)C(=O)NCC(=O)NCC(=O)N1CCC[C@H]1C(=O)N[C@@H](CO)C(=O)N[C@@H](CO)C(=O)NCC(=O)N[C@@H](C)C(=O)N1CCC[C@H]1C(=O)N1CCC[C@H]1C(=O)N1CCC[C@H]1C(=O)N[C@@H](CO)C(=O)N[C@@H](CSC1CC(=O)N(CCCCCC(=O)NNC(=O)CCCC[C@@H]2SC[C@@H]3NC(=O)N[C@@H]32)C1=O)C(N)=O (stereo partly shown) [5C, HAibQGT FTSDY SK*YLD YMMAR DFVQW LIEGG PSSGA PPPSB#]											14.1 ± 1.9						Activity relative to STD peptide (%), Glucagon (human GCGR; [3]): 23%; Activity relative to GLP-1 (%), Glucagon (human GCGR; [4]): 12%; Activity relative to STD peptide (%), GIP (human GIPR; [3]): 8%; Activity relative to GLP-1 (%), GIP (human GIPR; [4]): 4%; Weight loss (%) ([1]; 10 nmol/kg QD): 9.6 ± 1.0%; Activity relative to STD peptide (%), GLP-1 (human GLP-1R; [3]): 202%; Activity relative to GLP-1 (%), GLP-1 (human GLP-1R; [4]): 100%
CSCC[C@H](NC(=O)[C@H](Cc1ccc(O)cc1)NC(=O)[C@H](CC(=O)O)NC(=O)[C@H](CC(C)C)NC(=O)[C@H](CC(C)C)NC(=O)[C@H](CCCCN)NC(=O)[C@H](CO)NC(=O)[C@H](Cc1ccc(O)cc1)NC(=O)[C@H](CC(=O)O)NC(=O)[C@H](CO)NC(=O)[C@@H](NC(=O)[C@H](Cc1ccccc1)NC(=O)[C@@H](NC(=O)CNC(=O)[C@H](CCC(N)=O)NC(=O)C(C)(C)NC(=O)[C@@H](N)Cc1c[nH]cn1)[C@@H](C)O)[C@@H](C)O)C(=O)N[C@@H](CCSC)C(=O)N[C@@H](CCC(N)=O)C(=O)N[C@@H](CCCNC(=N)N)C(=O)N[C@@H](CC(=O)O)C(=O)N[C@@H](Cc1ccccc1)C(=O)N[C@H](C(=O)N[C@@H](CCC(N)=O)C(=O)N[C@@H](Cc1c[nH]c2ccccc12)C(=O)N[C@@H](CC(C)C)C(=O)N[C@@H](CC(C)C)C(=O)N[C@@H](CCC(=O)O)C(=O)NCC(=O)NCC(=O)N1CCC[C@H]1C(=O)N[C@@H](CO)C(=O)N[C@@H](CO)C(=O)NCC(=O)N[C@@H](C)C(=O)N1CCC[C@H]1C(=O)N1CCC[C@H]1C(=O)N1CCC[C@H]1C(=O)N[C@@H](CO)C(=O)N[C@@H](CSC1CC(=O)N(CCNC(=O)COCCOCCNC(=O)COCCOCCNC(=O)CC[C@H](NC(=O)CCCCCCCCCCCCCCCCC(=O)O)C(=O)O)C1=O)C(N)=O)C(C)C (stereo partly shown) [5-5A] (H-H[Aib]QGTFTSDYSKLLDYMMQRDFVQWLLEGGPSSGAPPPSC(X1)-NH2; N-terminus assumed)	1	0	1	0	1	14	2	14	2	3	10.6 ± 1.0	673	100	673	100	40	
